The supplement of paper PMC11451515

System: NOMO1
Assay: cell viability relative to DMSO control; higher = less cytotoxic
Conditions: 48 h
Outline: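 NOMO1, SEM and P12-Ichikawa leukemia cells spent at least four passages adapting to each medium before use. They were seeded at 500 cells/well (NOMO1, SEM) or 1000 cells/well (P12-Ichikawa) in 5 μl in 1536-well plates and pin-dosed with library compounds in DMSO at 11 threefold steps from 47 μM down to 0.79 nM. After 48 h at 37°C, CellTiter-Glo One luminescence was read. Viability is reported as a percentage of the DMSO wells on each plate, with cell-free wells as background.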

[1] = HPLM + 10% dialyzed FBS, 0.000781 µM
[2] = HPLM + 10% dialyzed FBS, 0.00234 µM
[3] = HPLM + 10% dialyzed FBS, 0.00702 µM
[4] = HPLM + 10% dialyzed FBS, 0.0211 µM
[5] = HPLM + 10% dialyzed FBS, 0.0632 µM
[6] = HPLM + 10% dialyzed FBS, 0.19 µM
[7] = HPLM + 10% dialyzed FBS, 0.569 µM
[8] = HPLM + 10% dialyzed FBS, 1.71 µM
[9] = HPLM + 10% dialyzed FBS, 5.12 µM
[10] = HPLM + 10% dialyzed FBS, 15.4 µM
[11] = HPLM + 10% dialyzed FBS, 46.1 µM
[12] = RPMI 5 mM glucose + 10% FBS, 0.000781 µM
[13] = RPMI 5 mM glucose + 10% FBS, 0.00234 µM
[14] = RPMI 5 mM glucose + 10% FBS, 0.00702 µM
[15] = RPMI 5 mM glucose + 10% FBS, 0.0211 µM
[16] = RPMI 5 mM glucose + 10% FBS, 0.0632 µM
[17] = RPMI 5 mM glucose + 10% FBS, 0.19 µM
[18] = RPMI 5 mM glucose + 10% FBS, 0.569 µM
[19] = RPMI 5 mM glucose + 10% FBS, 1.71 µM
[20] = RPMI 5 mM glucose + 10% FBS, 5.12 µM
[21] = RPMI 5 mM glucose + 10% FBS, 15.4 µM
[22] = RPMI 5 mM glucose + 10% FBS, 46.1 µM
[23] = RPMI 5 mM glucose + 10% dialyzed FBS, 0.000781 µM
[24] = RPMI 5 mM glucose + 10% dialyzed FBS, 0.00234 µM
[25] = RPMI 5 mM glucose + 10% dialyzed FBS, 0.00702 µM
[26] = RPMI 5 mM glucose + 10% dialyzed FBS, 0.0211 µM
[27] = RPMI 5 mM glucose + 10% dialyzed FBS, 0.0632 µM
[28] = RPMI 5 mM glucose + 10% dialyzed FBS, 0.19 µM
[29] = RPMI 5 mM glucose + 10% dialyzed FBS, 0.569 µM
[30] = RPMI 5 mM glucose + 10% dialyzed FBS, 1.71 µM
[31] = RPMI 5 mM glucose + 10% dialyzed FBS, 5.12 µM
[32] = RPMI 5 mM glucose + 10% dialyzed FBS, 15.4 µM
[33] = RPMI 5 mM glucose + 10% dialyzed FBS, 46.1 µM

Structure (SMILES) | cell viability [1] | cell viability [2] | cell viability [3] | cell viability [4] | cell viability [5] | cell viability [6] | cell viability [7] | cell viability [8] | cell viability [9] | cell viability [10] | cell viability [11] | cell viability [12] | cell viability [13] | cell viability [14] | cell viability [15] | cell viability [16] | cell viability [17] | cell viability [18] | cell viability [19] | cell viability [20] | cell viability [21] | cell viability [22] | cell viability [23] | cell viability [24] | cell viability [25] | cell viability [26] | cell viability [27] | cell viability [28] | cell viability [29] | cell viability [30] | cell viability [31] | cell viability [32] | cell viability [33]
OC(=O)\C1=C\N(C2=CC=C(F)C=C2)C3=C(C=C(F)C(=C3)N4CCNCC4)C1=O | 113% | 99.1% | 116% | 111% | 129% | 122% | 114% | 105% | 101% | 95.6% | 98.6% | 103% | 99.1% | 110% | 101% | 104% | 104% | 117% | 104% | 115% | 98.4% | 94.6% | 107% | 106% | 116% | 105% | 106% | 113% | 133% | 100% | 105% | 104% | 85.8%
CCOc1ccc(Nc2nc(-c3c(C)nc4ccccn34)cs2)cc1 | 109% | 118% | 119% | 111% | 40% | 35.7% | 33.4% | 38.7% | 38.8% | 45.7% | 40.4% |  |  |  |  |  |  |  |  |  |  |  | 119% | 117% | 128% | 120% | 112% | 33.2% | 31.4% | 30.2% | 31.4% | 35.9% | 32.1%
C[C@@H](O)[C@@H]1[C@H]2[C@@H](C)\C(=C(/N2C1=O)C(=O)OCOC(=O)C(C)(C)C)SC3CN(C3)/C4=N/CCS4 | 93.2% | 93.2% | 103% | 111% | 110% | 113% | 105% | 102% | 68.2% | 60.8% | 38.4% | 92.3% | 102% | 113% | 111% | 101% | 112% | 101% | 110% | 109% | 116% | 104% | 87.8% | 106% | 103% | 119% | 111% | 126% | 115% | 120% | 100% | 84.5% | 77.7%
C[C@@]12O[C@@H](C[C@]1(O)CO)n1c3ccccc3c3c4c(c5c6ccccc6n2c5c31)CNC4=O |  |  |  |  |  |  |  |  |  |  |  | 106% | 128% | 102% | 121% | 119% | 96.3% | 77.3% | 42.3% | 39.9% | 24.3% | 5.7% | 103% | 118% | 122% | 138% | 110% | 99.6% | 76.4% | 50% | 31.8% | 27.4% | 4.47%
CN(C)C(=O)c1ccc([S+](=O)([O-])c2ccc(NC(=O)[C@@](C)(O)C(F)(F)F)c(Cl)c2)cc1 | 104% | 104% | 114% | 123% | 95.9% | 128% | 126% | 105% | 91.3% | 33% | 10.2% | 104% | 109% | 102% | 105% | 114% | 101% | 112% | 99.4% | 105% | 38.7% | 13.5% | 95.9% | 109% | 116% | 118% | 108% | 104% | 104% | 91.2% | 99.8% | 89.7% | 60.4%
CN1\C(=C(\O)C2=C(C=CS2)[S+]1([O-])=O)C(=O)NC3=CC=CC=N3 | 116% | 122% | 123% | 125% | 112% | 112% | 109% | 114% | 95.4% | 100% | 44.6% | 100% | 106% | 113% | 111% | 113% | 114% | 94.4% | 101% | 100% | 93.1% | 29.3% | 113% | 114% | 117% | 116% | 110% | 114% | 97.3% | 107% | 109% | 92.7% | 46.3%
CN(C/C=C/C#CC(C)(C)C)Cc1cccc2ccccc12 | 93.8% | 125% | 104% | 94.1% | 108% | 104% | 108% | 96.4% | 98% | 92.4% | 106% | 86.4% | 96.7% | 86.2% | 85.1% | 93.2% | 91.8% | 103% | 87.2% | 90% | 94.5% | 100% | 87.9% | 82.4% | 95.8% | 91.6% | 107% | 90.1% | 93.9% | 91.6% | 90.2% | 98.8% | 109%
C1CCC(C(CC2CCCCN2)C2CCCCC2)CC1 (stereo not given) | 121% | 111% | 127% | 111% | 140% | 127% | 132% | 150% | 131% | 118% | 5.65% | 108% | 116% | 133% | 144% | 116% | 122% | 132% | 115% | 131% | 121% | 6.9% | 110% | 108% | 124% | 107% | 114% | 130% | 114% | 131% | 116% | 98.1% | 6.09%
CC1(C)OC2CC3C4CC(F)C/5=C/C(=O)/C=C\C5(C)C4C(O)CC3(C)[C@@]2(O1)C(=O)CO (stereo not given in full) | 105% | 111% | 118% | 119% | 126% | 117% | 110% | 124% | 123% | 124% | 119% | 113% | 108% | 102% | 115% | 121% | 127% | 116% | 112% | 117% | 119% | 119% | 124% | 113% | 125% | 122% | 123% | 150% | 123% | 138% | 135% | 119% | 132%
C=CC1=C(C(=O)O)N2C(=O)[C@@H](NC(=O)/C(=N\O)c3csc(N)n3)[C@H]2SC1 | 82.9% | 110% | 119% | 102% | 123% | 109% | 129% | 129% | 110% | 113% | 118% | 104% | 119% | 124% | 118% | 117% | 127% | 116% | 120% | 125% | 134% | 138% | 98.2% | 105% | 115% | 118% | 119% | 125% | 140% | 124% | 121% | 109% | 107%
CNC1[C@@H](O)C(O[C@@H]2C(O)C(O[C@H]3O[C@H]([C@@H](C)NC)CC[C@H]3N)[C@@H](N)C[C@H]2N)OC[C@]1(C)O (stereo not given in full) | 98.9% | 102% | 104% | 106% | 108% | 98.1% | 106% | 87.4% | 85.3% | 91.4% | 63.7% | 93.4% | 99.6% | 93.2% | 97.3% | 91.3% | 91.2% | 91.2% | 98.9% | 87.7% | 92.8% | 96.7% | 92.4% | 84.5% | 87.1% | 81.2% | 88.5% | 87.7% | 92.1% | 90% | 83.1% | 89.8% | 76.5%
CN(C)CCc1c[nH]c2ccc(C[C@H]3COC(=O)N3)cc12 | 104% | 119% | 106% | 113% | 106% | 121% | 127% | 111% | 104% | 48.1% | 9.77% | 104% | 98.6% | 106% | 101% | 112% | 97.3% | 110% | 106% | 99.9% | 59.2% | 12.9% | 96.4% | 108% | 106% | 111% | 116% | 114% | 108% | 102% | 109% | 87.8% | 20.1%
O=C1C[C@@H](c2ccc(O)cc2)Oc2cc(O)cc(O)c21 |  |  |  |  |  |  |  |  |  |  |  | 128% | 104% | 104% | 100% | 126% | 124% | 116% | 107% | 127% | 106% | 111% | 111% | 108% | 117% | 110% | 120% | 110% | 119% | 108% | 86.2% | 109% | 97.9%
Cc1c(Cn2c(C)nc3c(C(=O)O)cc(N4CCOCC4)cc32)cccc1C(F)(F)F | 98.3% | 114% | 121% | 125% | 115% | 120% | 106% | 121% | 105% | 95.8% | 16.3% | 87.2% | 95.4% | 101% | 108% | 103% | 97.1% | 108% | 116% | 112% | 101% | 75% | 89.2% | 112% | 105% | 117% | 98.9% | 101% | 111% | 112% | 96.6% | 102% | 85.8%
CCOC(=O)[C@H](CCc1ccccc1)N[C@@H](C)C(=O)N1CCC[C@H]1C(=O)O | 128% | 105% | 117% | 134% | 125% | 119% | 108% | 119% | 110% | 99.8% | 102% | 114% | 105% | 111% | 102% | 102% | 105% | 97.7% | 103% | 98.7% | 93.3% | 103% | 97.9% | 109% | 116% | 122% | 116% | 123% | 112% | 110% | 103% | 96% | 99.5%
Cc1ncc(OC[C@@]2(c3cccc(F)c3)C[C@H]2C(=O)Nc2ccc(F)cn2)c(C)n1 | 108% | 106% | 122% | 120% | 125% | 129% | 117% | 105% | 120% | 117% | 108% | 105% | 93.8% | 125% | 92.7% | 105% | 113% | 107% | 92.2% | 102% | 101% | 116% | 102% | 107% | 105% | 106% | 119% | 110% | 97% | 101% | 112% | 110% | 116%
